Results reported in a melting point compilation (Tetko et al.; mined from patent text by program, amines drawn as free bases though some values may be those of a salt).
Residues, ends and D or L forms follow the SMILES beside them. *: point of attachment. Cbz = O=C(OCc1ccccc1)*; tBu = CC(C)(C)*

First: CNc1ccc(Cl)cc1-c1nnc(C(F)(F)F)n1CC(=O)N1CCOCC1
Second: COc1cccc2c1nc(C(F)F)n2-c1nc(Nc2cccnn2)nc(N2CCOCC2)n1
The melting point of the first is lower: 152 to 153 °C for the first, 261 to 263 °C for the second.

First: CC(CC(C(O)CC(C)(C)O)N(C)C)C1CCC2C(O)CCCC12C (stereo unspecified)
Second: CN(C)CCCNC(CC(=O)O)C(=O)OC1CCCCC1 (stereo unspecified)
The melting point of the first is higher: 169 to 170 °C for the first, 150 to 152 °C for the second.

Compared with `Nc1cc(C(O)=S)cc(Cc2ccccc2)c1Cc1ccccc1`, `N=C(Cc1ccc(F)cc1)Nc1ncccc1OCc1ccccc1` is lower in melting point: 256 to 257 °C for the first, 86 to 93 °C for the second.

First: O=[N+]([O-])c1ccc(-c2nc(-c3ccc([N+](=O)[O-])cc3)c(-c3ccc([N+](=O)[O-])cc3)[nH]2)cc1
Second: CS(=O)(=O)c1ccc(-c2nn(CCc3ccccc3)c(C(F)(F)F)c2-c2ccc(F)cc2)cc1
The melting point of the first is higher: 320 to 322 °C for the first, 132 to 135 °C for the second.

First: Cc1c(C)c2c(c(C)c1N)CC(C)(CNCCN1CCCCC1)O2 (stereo unspecified)
Second: Cc1c(C)c2c(c(C)c1NC=O)CC(C)(CSc1ccccc1)O2 (stereo unspecified)
The melting point of the first is lower: 102 to 104 °C for the first, 130 to 131 °C for the second.

First: CCOC(=O)C(CCN1CCN(c2ncc(F)cn2)CC1)C(=O)c1ccc(F)cc1 (stereo unspecified)
Second: N#CN(CCN1CCC(C(=O)c2ccc(F)cc2)CC1)C(=N)NCCN1CCC(C(=O)c2ccc(F)cc2)CC1
The melting point of the first is lower: 95 to 96 °C for the first, 152 to 156 °C for the second.

Compared with `CC(C)c1nc2cc(NC(=O)c3c(C(=O)O)cnn3C)ccn2n1`, `CNC(=O)C(C)n1cc(C)c(-c2ccccc2)n1` (stereo unspecified) is lower in melting point: > 250 °C for the first, 111 to 112 °C for the second.

Compared with `C#CCNC1=NS(=O)(=O)N=C1NCCSCc1nc[nH]c1C`, `CCc1cc(C#N)c(=O)[nH]c1C` is higher in melting point: 82 to 103 °C for the first, 237 to 240 °C for the second.

First: CCc1c(C(C)C)nc(C(C)C)c(C(C)O)c1-c1ccc(F)cc1O (stereo unspecified)
Second: Cc1cc(S(=O)(=O)NCc2ccccc2)c2c(C)ccc(C(C)C)cc1-2
The melting point of the first is higher: 190 to 191 °C for the first, 124 to 126 °C for the second.

Compared with `CC(OCc1cc2cc(C(F)(F)F)ccc2n1S(=O)(=O)c1ccccc1)C(=O)O` (stereo unspecified), `O=C(Nc1ccc(Cl)cc1C(=NO)c1ccccc1)C(F)Cl` (stereo unspecified) is higher in melting point: 72 to 74 °C for the first, 110 to 129 °C for the second.

First: Cc1ncc(C(=O)N2CCCCC2)s1
Second: Nc1ccc(C(=O)N2CCCCc3sccc32)c(Cl)c1
The melting point of the first is lower: 68.7 °C for the first, 176 to 179 °C for the second.

First: COc1cc(OCc2ccncc2)ccc1/C=C/c1cc(/C=C/c2cc3ccccc3[nH]2)n[nH]1
Second: C=C(Nc1nc(-c2ccccc2)c(-c2nc3ccccc3c(=O)n2-c2ccc(OC)cc2)s1)c1ccco1
The melting point of the first is lower: 124 to 134 °C for the first, 262 to 264 °C for the second.

First: O=C(O)Cc1ccc2c(c1)sc1c(Cl)cccc12
Second: CCCC(=O)c1cnc2cc(CO)ccc2c1Nc1ccccc1C
The melting point of the first is higher: 226 to 228 °C for the first, 176 to 178 °C for the second.

First: COc1nc(OC)c(C=CC(C)=O)c(N(C)C)n1
Second: COc1cc(OC)nc(C2(O)OC(=O)c3c(Cl)cccc32)n1 (stereo unspecified)
The melting point of the first is lower: 116 °C for the first, 188 to 190 °C for the second.

First: CC(=O)OCC1=C(C(=O)OC(C)(C)C)N2C(=O)C(N)C2SC1 (stereo unspecified)
Second: COC(=O)[C@@]12CO[C@@H](C(C)(C)C)N1C(=O)[C@@H](Cc1ccccc1)C2
The melting point of the first is lower: 111 to 112 °C for the first, 130 to 131 °C for the second.

Compared with `Cc1c(C)c2c(c(C)c1O)CCC(C)(C(=S)Nc1cc(C(C)(C)C)c(O)c(C(C)(C)C)c1)O2` (stereo unspecified), `CCN(C(=O)N(CC)c1ccc2c(c1)C(C)(C)CCC2(C)C)c1ccc(C(=O)O)cc1` is lower in melting point: 172 to 174 °C for the first, 169 to 172 °C for the second.

First: Cc1ccc(CCOc2ccnc3c(F)cccc23)cc1
Second: COc1ccc(CN(C)CCc2ccc(NC(=O)c3cccc4c(=O)c5cccc(C)c5[nH]c34)c(C)c2)cc1OC
The melting point of the first is lower: 89 to 90 °C for the first, 160 to 161 °C for the second.

First: CON(C)C(=O)Nc1ccc(CN2OCC(C)(C)C2=O)c(Cl)c1
Second: CCOC(=O)Cn1c(=O)c2cc(OC)ccc2n(Cc2ccc(Cl)cc2Cl)c1=O
The melting point of the first is lower: 93 to 95 °C for the first, 167 to 168 °C for the second.

First: NC(=O)c1ccc(OCc2ccccc2)cc1CCN1CCNCC1
Second: COc1ccc2c(c1)C(CCN1CC=C(c3ccccc3)CC1)C(C)N2C(C)=O (stereo unspecified)
The melting point of the first is higher: 116 to 118 °C for the first, 113 to 115 °C for the second.

First: COc1ccc2c(c1Br)CCC1C(=O)NC(=O)C21 (stereo unspecified)
Second: COc1ccc(C=O)cc1CN1C(=O)c2ccccc2C1=O
The melting point of the first is higher: 243 to 245 °C for the first, 109 to 111 °C for the second.

Compared with `Cc1cccc(C(O)CNC(N)=C(CCSCc2cc(C)c(CN(C)C)s2)[N+](=O)[O-])c1` (stereo unspecified), `COC(=O)C1=C(C)NC(C)=C(c2nc(-c3ccc(CN(C)Cc4ccccc4)cc3)no2)C1c1cccc([N+](=O)[O-])c1` (stereo unspecified) is higher in melting point: 88 to 89 °C for the first, 192 to 193 °C for the second.

First: O=C1c2ccccc2CN2C(=O)CCC12 (stereo unspecified)
Second: CC1(CC(=O)O)CCc2ccccc2C1=O (stereo unspecified)
The melting point of the first is lower: 105 to 107 °C for the first, 114 to 116 °C for the second.

Compared with `CCOC(=O)c1cnc(-c2cc3cccc(NS(=O)(=O)c4cccs4)c3n2COC)s1`, `CCOC(=O)c1cnc2ccc(CC)cc2c1O` is higher in melting point: 133 to 134 °C for the first, > 260 °C for the second.

First: CCOC(=O)c1cn(-c2nc(N)c(F)cc2F)c2c(F)c(F)c(F)c(N)c2c1=O
Second: CC(C)n1nc(-c2nc(C(N)=O)c(N)nc2-c2ccccc2Br)ccc1=O
The melting point of the first is higher: 225 to 230 °C for the first, 132 to 135 °C for the second.

First: CN1Cc2cscc2Nc2cc(Cl)c(Cl)cc21
Second: Cn1c(Cl)c(C=O)c2cccc(Cl)c21
The melting point of the first is lower: 92 to 93 °C for the first, 185 to 187 °C for the second.

First: Nc1nc(Cl)cc(C=C(Cl)Cl)n1
Second: Cc1nnc(-c2cc(Cl)c(Cl)c(Cl)n2)s1
The melting point of the first is lower: 119 to 120 °C for the first, 148 to 150 °C for the second.

First: CCNC(=O)c1c([Si](C)(C)C)ccc(C(=O)OC)c1Cl
Second: COC(=O)c1cc2c(Br)csc2nc1C(=O)OC
The melting point of the first is higher: 103 to 104 °C for the first, 86 to 87.5 °C for the second.

`COc1ccc(CSc2nnc(-c3ccn4ncnc4c3)o2)cc1C#N` and `CCOc1ccc(NC=C(C#N)C(=O)Nc2cc(OC)c(Cl)cc2Cl)cc1I` cannot be ordered by melting point: 247 to 248 °C for the first, > 245 °C for the second.

First: CCCCCCC(O)CCCCCCCCCCC(=O)OC (stereo unspecified)
Second: CCCCCCCCCCCCCCc1ccc(O)c(C(=O)CCCCC)c1
The melting point of the first is higher: 58 °C for the first, 41 to 42 °C for the second.

First: C1=C(c2ccccc2)CCN(C2CC=C(c3ccccn3)CC2)C1 (stereo unspecified)
Second: OC(c1ccccc1)c1ccc2cccnc2c1 (stereo unspecified)
The melting point of the first is higher: 143 to 144 °C for the first, 118 °C for the second.

First: O=C(Nc1ccc(O)cc1)OCC(Cl)(Cl)Cl
Second: O=C(COc1ncc(Cl)cc1Cl)Nc1ccccc1
The melting point of the first is lower: 134 °C for the first, 164 to 166 °C for the second.

First: CC1OC(OC2C=C(Br)C(=O)C(C)O2)C=C(Br)C1=O (stereo unspecified)
Second: Cc1cc(C)c2c(=O)c(N)coc2c1
The melting point of the first is higher: 125 °C for the first, 120 to 121 °C for the second.

First: CC(N1CCN(c2ncnn2Cc2ccc(C(C)(C)C)cc2)CC1)C(O)(Cn1cncn1)c1ccc(F)cc1F (stereo unspecified)
Second: COc1c(C)c(C)cc(C)c1C(O)(c1ccc(C(C)C)cc1)C1CCN(Cc2ccccc2)CC1 (stereo unspecified)
The melting point of the first is lower: 73 to 75 °C for the first, 154 to 156 °C for the second.

First: NC(=O)C(F)(I)C(F)(F)F (stereo unspecified)
Second: N#Cc1c[nH]cc1-c1ccccc1C(F)(F)F
The melting point of the first is lower: 75 to 77 °C for the first, 105 to 107 °C for the second.

First: Nc1ccccc1C(=O)NCCCCN1CCC(OC(c2ccccc2)c2ccccc2)CC1
Second: COC(=O)C(Cc1ccccc1)NC(=O)C(Cc1ccc(OC(C)(C)C)cc1)NC(=O)OCc1ccccc1 (stereo unspecified) (Cbz-Tyr(tBu)-Phe-OMe; configuration not given here)
The melting point of the first is lower: 74 to 75 °C for the first, 106 to 107 °C for the second.

First: CNS(=O)(=O)CCc1ccc(N)cc1
Second: CNC(=C[N+](=O)[O-])NCCN1CCC(C(=O)c2ccc(F)cc2)CC1
The melting point of the first is lower: 101 to 105 °C for the first, 157 to 159 °C for the second.

Compared with `COc1ccc(C2(Cl)CC(CNC(C)(C)C)=Nc3sc4c(c32)CCNC4)cc1OC` (stereo unspecified), `COC(CN(C)c1nccc(Oc2ccc(NC(=O)c3cc(F)cc(N4CCOCC4)c3)c3ccccc23)n1)OC` is lower in melting point: 162 to 163 °C for the first, 92 to 94 °C for the second.

First: Cn1c(-c2ccccc2Cl)cc2ncccc2c1=O
Second: N#Cc1cc(-n2c3ccccc3[nH]c(=N)[nH]c3ccccc32)ccc1Cl
The melting point of the first is lower: 152 to 153 °C for the first, 225 to 228 °C for the second.

Compared with `CC(C)(C)OC(=O)C=Cc1ccc(NC(=O)C=C2CC(C(=O)O)Nc3ccccc32)cc1` (racemic), `CC(C)N(O)C(=O)C=Cc1ccc2ccccc2c1` is higher in melting point: 140 °C for the first, 184 to 185 °C for the second.

First: CC(CN1CCC(c2noc3cc(F)ccc23)CC1)N1Cc2ccccc2C1 (stereo unspecified)
Second: Cc1noc2cc3c(cc12)C1(CO3)C(=O)Nc2ccccc21 (stereo unspecified)
The melting point of the first is lower: 164 to 165 °C for the first, 226 to 227 °C for the second.

First: CSc1[nH]c(-c2cnn(-c3c(Cl)cc(C(F)(F)F)cc3Cl)n2)nc1[N+](=O)[O-]
Second: N#Cc1cc(C2=NOC(c3cc(Cl)cc(Cl)c3)(C(F)(F)F)C2)ccc1F (stereo unspecified)
The melting point of the first is higher: 153 to 155 °C for the first, 136 to 139 °C for the second.

First: CCOC(=O)C1(c2ccc3c(c2)OCC(Cc2ccc(-c4ccccc4)cc2)C3=O)CCCC1 (stereo unspecified)
Second: CN(CCCCNC(=NCCCOc1cccc(CN2CCCCC2)c1)NC#N)CCN(Cc1ccc(F)cc1)c1ccccn1
The melting point of the first is lower: 50 to 56 °C for the first, 84 to 86 °C for the second.

Compared with `O=[N+]([O-])c1cc(Cl)c(Oc2cc(Cl)c(Br)cc2Cl)cc1Oc1ccccc1`, `O=[N+]([O-])c1cccc2c(Br)nccc12` is higher in melting point: 85 °C for the first, 187 to 188 °C for the second.

First: CSC(C)(C(=O)O)c1cccc(C2(c3ccccc3)OCCO2)c1 (stereo unspecified)
Second: O=C(NNC1NS(=O)(=O)c2ccccc21)Oc1ccccc1 (stereo unspecified)
The melting point of the first is lower: 118 to 120 °C for the first, 216 °C for the second.

Compared with `COC(=O)C(C(=O)OC)=C(C)N`, `COC(=O)CC(=O)NC(C)(C)CC(C)(C)C` is lower in melting point: 81 to 82 °C for the first, 74 to 75 °C for the second.

First: O=C(O)[C@@H]1O[C@@H]1c1ccccc1
Second: O=C(CCC(=O)c1ccccc1)NC1CCCCC1
The melting point of the first is lower: 81.5 to 83 °C for the first, 109 to 111 °C for the second.

First: CP(=O)(CCl)C1CCCCC1 (stereo unspecified)
Second: COc1ccc2c(c1)C13CCN(C)C(C2)C1OCOC3 (stereo unspecified)
The melting point of the first is lower: 51 to 53 °C for the first, 134 to 135 °C for the second.

Compared with `CCOC=Nc1sccc1C#N`, `CCOC(=O)C(=NOCSC)c1csc(NC=O)n1` is higher in melting point: 38 °C for the first, 130 to 131 °C for the second.

First: Cc1cc(C)n(-c2cnc(CN)c(Nc3ccc(Cl)cc3)n2)n1
Second: CC(=O)Nc1ccc(S(=O)(=O)Nc2ccn(C3CC3)c(=O)n2)cc1
The melting point of the first is higher: 156 to 160 °C for the first, 139 to 143 °C for the second.

First: COCc1ccc(C(=O)O[C@H](CC(C)C)C(=O)O)o1
Second: NS(=O)(=O)c1cc(CCNC(=O)C=Cc2cccs2)ccc1OCC1CCCO1 (stereo unspecified)
The melting point of the first is lower: 73 to 74 °C for the first, 180 to 185 °C for the second.

With `CN1OCC(=O)N(c2ccc(C(C)(C)C)cc2)C1=S` the melting point was 168 to 170 °C.
